Source: US20240293400A1, “NOVEL AZAINDOLE DERIVATIVES AS ANTIVIRAL AGENTS” (Centre National de la Recherche Scientifique, priority 2021, published 2024)
pIC50: −log10 of the molar value.

Tests used:
[1] = tested on: SARS-COV-2 virus, BetaCoV/France/IDF0371/2020; assay: Anti-SARS-COV-2 activity in VeroE6 cells; assay type: cell-based; conditions: MOI=0.01, 24 hours, qRT-PCR; for infection of the VeroE6 cells by the SARS-COV-2 virus: 1.25 μM; for pIC50: Vero E6 cells
Experimental: FIG. 7: Anti-SARS-COV-2 activity of compounds 1, 2, 3, 10 and 14 determined in the VeroE6 line. The cells were preincubated for 1 hour with compounds at a concentration of 1.25 μM, then infected with the viral strain BetaCoV/France/IDF0371/2020 (MOI=0.01). The cells were kept in culture for 24 hours in the presence of the compound. The residual viral replication is measured by quantification of the viral RNA in the cell culture by qRT-PCR. The control condition is obtained by incubation of cells in the presence of the dilution solvent DMSO (0). The values are averages of triplicates+standard deviation.
(§1) The inhibitory activity of the compounds of the invention on the infection by SARS-COV-2 was evaluated in vitro by infection of three relevant lines for the study of this pathogen: the green monkey line VeroE6 (immortalized kidney epithelium, ATCC #CRL-1586), the A549-ACE2 line produced by transfection of the ACE2 receptor in the A549 line (pulmonary epithelial carcinoma; ATCC #CCL-185), commercial primary bronchial epithelium cells (Mucilair Epithelix).
(§2) The infection tests are carried out by preincubating 4×10^4 VeroE6 or A549-ACE2 cells, cultivated in a 96-well plate, with the indicated concentrations of compounds for 1 hour. The cells are cultivated in a 5% CO2 atmosphere in a Dulbecco's modified Eagle's medium (DMEM) comprising 2% calf serum and 1% penicillin/streptomycin. The cells were then exposed to the SARS-COV-2 virus, BetaCoV/France/IDF0371/2020 (MOI=0.01) for 2 hours in the presence of the compounds before elimination of the innoculum, washing and culturing the cells in the presence of the compounds. 24 h after the viral challenge, the infection is quantified by amplification of the viral RNA by qRT-PCR using the Luna Universal One-Step RT-PCR kit. The values (DCT) are normalized by the GAPDH mRNA. The values represented are averages of triplicates+standard deviation. The control conditions were carried out by incubating the cells in the presence of DMSO, the solvent used for the solubilization of the compounds tested. The volumes of DMSO used under these conditions correspond to the volumes provided by the compounds under the test conditions.
IC50 compounds 1, 2 and 3 were determined on the VeroE6 and A549-ACE2 cells using the software Graphpad Prism.

Axl = Axl (Homo sapiens (Human), UniProt P30530); assay: Kinase panel Z'-LYTE/Adapta SelectScreen and IC50 determination; assay type: biochemical; conditions: for Percentage inhibition AXL: 100 nM in 1% DMSO; for pIC50: 10 concentrations between 100 nM and 0.00495 nM
Chain of Axl (P30530 26-894): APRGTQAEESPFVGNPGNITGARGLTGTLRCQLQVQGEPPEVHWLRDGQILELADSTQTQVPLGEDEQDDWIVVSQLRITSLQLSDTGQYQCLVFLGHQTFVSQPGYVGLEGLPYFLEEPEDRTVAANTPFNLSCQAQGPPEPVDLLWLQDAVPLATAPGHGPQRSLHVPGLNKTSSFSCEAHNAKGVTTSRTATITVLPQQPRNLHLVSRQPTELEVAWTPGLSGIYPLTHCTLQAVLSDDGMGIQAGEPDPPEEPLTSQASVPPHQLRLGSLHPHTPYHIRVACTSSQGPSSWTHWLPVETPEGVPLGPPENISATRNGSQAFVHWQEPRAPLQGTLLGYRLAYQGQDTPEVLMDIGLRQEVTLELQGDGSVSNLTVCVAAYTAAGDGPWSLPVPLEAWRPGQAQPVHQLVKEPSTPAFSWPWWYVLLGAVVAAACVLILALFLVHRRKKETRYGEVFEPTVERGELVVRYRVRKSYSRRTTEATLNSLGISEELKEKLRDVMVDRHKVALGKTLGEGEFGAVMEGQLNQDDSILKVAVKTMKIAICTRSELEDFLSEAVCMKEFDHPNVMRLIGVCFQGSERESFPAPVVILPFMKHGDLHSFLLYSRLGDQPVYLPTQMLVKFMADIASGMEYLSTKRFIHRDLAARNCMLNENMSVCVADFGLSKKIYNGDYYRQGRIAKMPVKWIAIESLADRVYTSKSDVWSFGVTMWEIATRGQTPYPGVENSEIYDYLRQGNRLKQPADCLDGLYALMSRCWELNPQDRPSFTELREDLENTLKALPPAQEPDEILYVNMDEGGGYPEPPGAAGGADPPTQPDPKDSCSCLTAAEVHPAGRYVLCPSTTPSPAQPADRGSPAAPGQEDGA
Experimental: FIG. 2: […] The compounds are screened in DMSO at 1% final. The kinases were diluted in a concentrated concentration twice in kinase buffer. All the ATP solutions were diluted in a 4-fold concentrated working concentration (50 mM HEPES pH 7.5, 0.01% BRIJ-35, 10 mM MgCl2, 1 mM EGTA). […] The inhibitory activity of the compounds on a panel of kinases including, inter alia, AXL and FLT3 was evaluated by Thermo Fisher Scientific using Z′-LYTE® and Adapta® Select Screen technology. The fluorescence-based biochemical test uses coupled enzymes and is based on the difference in sensitivity of the phosphorylated and non-phosphorylated peptides to proteolytic cleavage. The peptide substrate is labeled with 2 fluorophores—one at each end—allowing fluorescence transfer (FRET). […] The Axl or FLT3 kinases were diluted at a two-fold concentration in kinase buffer. All the ATP solutions are diluted in a 4-fold working concentration (50 mM HEPES PH 7.5, 0.01% BRIJ-35, 10 mM MgCl2, 1 mM EGTA).

RET = RET (Homo sapiens (Human), UniProt P07949); assay: Kinase panel Z'-LYTE/Adapta SelectScreen; assay type: biochemical; conditions: 100 nM in 1% DMSO
Chain of RET (P07949 29-1114): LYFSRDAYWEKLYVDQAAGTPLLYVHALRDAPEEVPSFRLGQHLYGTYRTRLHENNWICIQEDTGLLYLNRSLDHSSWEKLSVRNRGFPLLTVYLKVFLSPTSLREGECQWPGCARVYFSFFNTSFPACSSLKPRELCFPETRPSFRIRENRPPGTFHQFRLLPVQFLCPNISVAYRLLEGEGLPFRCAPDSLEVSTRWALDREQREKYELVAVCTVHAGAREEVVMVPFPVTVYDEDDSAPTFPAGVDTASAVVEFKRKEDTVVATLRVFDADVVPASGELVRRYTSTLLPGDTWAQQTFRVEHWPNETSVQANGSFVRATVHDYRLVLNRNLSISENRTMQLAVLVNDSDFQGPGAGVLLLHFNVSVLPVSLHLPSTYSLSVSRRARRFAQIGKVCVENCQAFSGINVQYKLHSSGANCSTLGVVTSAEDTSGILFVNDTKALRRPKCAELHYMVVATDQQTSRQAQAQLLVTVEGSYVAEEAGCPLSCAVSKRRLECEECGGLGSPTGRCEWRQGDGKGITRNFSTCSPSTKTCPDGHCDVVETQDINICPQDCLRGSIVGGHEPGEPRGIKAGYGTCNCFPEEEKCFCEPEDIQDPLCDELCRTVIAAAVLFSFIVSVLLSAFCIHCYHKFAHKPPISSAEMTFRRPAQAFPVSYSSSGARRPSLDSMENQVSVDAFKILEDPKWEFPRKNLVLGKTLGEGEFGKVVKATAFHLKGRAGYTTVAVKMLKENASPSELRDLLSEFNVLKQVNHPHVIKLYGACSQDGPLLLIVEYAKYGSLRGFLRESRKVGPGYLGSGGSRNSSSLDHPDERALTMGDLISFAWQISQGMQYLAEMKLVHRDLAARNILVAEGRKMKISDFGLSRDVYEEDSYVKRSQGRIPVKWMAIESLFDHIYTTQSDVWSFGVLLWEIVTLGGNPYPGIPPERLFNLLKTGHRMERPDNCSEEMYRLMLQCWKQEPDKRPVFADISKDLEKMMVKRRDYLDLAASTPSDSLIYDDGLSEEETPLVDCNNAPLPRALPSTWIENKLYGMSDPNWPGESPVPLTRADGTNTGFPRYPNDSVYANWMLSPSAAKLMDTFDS
Experimental: (§3) The inhibitory activity of the compounds on a panel of kinases including, inter alia, AXL and FLT3 was evaluated by Thermo Fisher Scientific using Z′-LYTE® and Adapta® Select Screen technology.
(§4) The fluorescence-based biochemical test uses coupled enzymes and is based on the difference in sensitivity of the phosphorylated and non-phosphorylated peptides to proteolytic cleavage. The peptide substrate is labeled with 2 fluorophores—one at each end—allowing fluorescence transfer (FRET).
(§5) Compounds 1, 2 and 3 are tested in wells at the final concentration of 100 nM in 1% DMSO.

PLK1 = PLK1 (Homo sapiens (Human), UniProt P53350); assay: Kinase panel Z'-LYTE/Adapta SelectScreen; assay type: biochemical; conditions: 100 nM in 1% DMSO
Experimental: as §3, §4, §5

ZAP70 = ZAP70 (Homo sapiens (Human), UniProt P43403); assay: Kinase panel Z'-LYTE/Adapta SelectScreen; assay type: biochemical; conditions: 100 nM in 1% DMSO
Chain of ZAP70 (P43403 whole entry): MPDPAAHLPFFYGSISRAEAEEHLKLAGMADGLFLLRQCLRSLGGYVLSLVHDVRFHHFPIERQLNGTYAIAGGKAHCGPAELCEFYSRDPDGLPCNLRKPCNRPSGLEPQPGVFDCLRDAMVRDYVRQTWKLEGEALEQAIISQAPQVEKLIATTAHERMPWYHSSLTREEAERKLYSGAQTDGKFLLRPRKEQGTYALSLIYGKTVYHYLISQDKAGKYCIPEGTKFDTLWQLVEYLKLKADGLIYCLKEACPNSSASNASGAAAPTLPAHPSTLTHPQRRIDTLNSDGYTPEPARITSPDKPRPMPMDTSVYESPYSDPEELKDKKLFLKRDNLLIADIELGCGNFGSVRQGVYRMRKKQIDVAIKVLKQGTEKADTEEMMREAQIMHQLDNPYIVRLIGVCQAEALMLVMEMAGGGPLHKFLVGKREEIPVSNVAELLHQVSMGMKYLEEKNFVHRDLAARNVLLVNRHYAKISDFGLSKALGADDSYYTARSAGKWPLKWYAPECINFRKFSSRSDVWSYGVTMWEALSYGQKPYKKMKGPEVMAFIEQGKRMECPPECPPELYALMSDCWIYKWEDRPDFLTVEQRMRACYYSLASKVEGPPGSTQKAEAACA
Experimental: as §3, §4, §5

SYK = SYK (Homo sapiens (Human), UniProt P43405); assay: Kinase panel Z'-LYTE/Adapta SelectScreen; assay type: biochemical; conditions: 100 nM in 1% DMSO
Experimental: as §3, §4, §5

ABL1 = ABL1 (Homo sapiens (Human), UniProt P00519); assay: Kinase panel Z'-LYTE/Adapta SelectScreen; assay type: biochemical; conditions: 100 nM in 1% DMSO
Chain of ABL1 (P00519 whole entry): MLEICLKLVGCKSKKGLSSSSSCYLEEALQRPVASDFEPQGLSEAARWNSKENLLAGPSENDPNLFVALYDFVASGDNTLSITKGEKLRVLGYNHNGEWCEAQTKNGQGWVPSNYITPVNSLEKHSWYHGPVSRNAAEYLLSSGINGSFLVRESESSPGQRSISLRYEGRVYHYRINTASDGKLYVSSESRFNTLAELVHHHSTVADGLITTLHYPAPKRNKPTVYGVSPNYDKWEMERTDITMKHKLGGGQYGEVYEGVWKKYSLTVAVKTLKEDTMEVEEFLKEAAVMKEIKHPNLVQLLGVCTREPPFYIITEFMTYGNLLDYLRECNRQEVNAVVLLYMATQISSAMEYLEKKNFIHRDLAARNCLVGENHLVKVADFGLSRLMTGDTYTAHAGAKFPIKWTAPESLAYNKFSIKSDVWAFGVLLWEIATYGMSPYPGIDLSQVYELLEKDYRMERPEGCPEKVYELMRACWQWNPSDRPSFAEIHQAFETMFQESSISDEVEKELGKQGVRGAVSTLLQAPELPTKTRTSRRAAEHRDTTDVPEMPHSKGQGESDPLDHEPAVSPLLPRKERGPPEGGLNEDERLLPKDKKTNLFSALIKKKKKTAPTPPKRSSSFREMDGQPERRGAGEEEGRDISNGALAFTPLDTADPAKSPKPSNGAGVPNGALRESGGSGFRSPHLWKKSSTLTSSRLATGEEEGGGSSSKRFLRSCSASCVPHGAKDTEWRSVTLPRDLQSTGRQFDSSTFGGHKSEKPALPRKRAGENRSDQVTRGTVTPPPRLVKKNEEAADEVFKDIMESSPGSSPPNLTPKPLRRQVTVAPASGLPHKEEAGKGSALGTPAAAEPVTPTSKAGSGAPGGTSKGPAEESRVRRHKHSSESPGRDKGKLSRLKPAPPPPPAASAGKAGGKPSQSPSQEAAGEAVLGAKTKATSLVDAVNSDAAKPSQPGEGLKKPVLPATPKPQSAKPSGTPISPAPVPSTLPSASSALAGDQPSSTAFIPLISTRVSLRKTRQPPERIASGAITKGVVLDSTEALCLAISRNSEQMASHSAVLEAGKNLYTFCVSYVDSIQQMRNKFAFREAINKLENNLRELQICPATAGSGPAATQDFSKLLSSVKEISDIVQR
Experimental: as §3, §4, §5

FLT3 = FLT3 (Homo sapiens (Human), UniProt P36888); assay: IC50 determination on kinase FLT3 (SelectScreen); assay type: biochemical; conditions: 10 concentrations between 100 nM and 0.00495 nM
Chain of FLT3 (P36888 27-993): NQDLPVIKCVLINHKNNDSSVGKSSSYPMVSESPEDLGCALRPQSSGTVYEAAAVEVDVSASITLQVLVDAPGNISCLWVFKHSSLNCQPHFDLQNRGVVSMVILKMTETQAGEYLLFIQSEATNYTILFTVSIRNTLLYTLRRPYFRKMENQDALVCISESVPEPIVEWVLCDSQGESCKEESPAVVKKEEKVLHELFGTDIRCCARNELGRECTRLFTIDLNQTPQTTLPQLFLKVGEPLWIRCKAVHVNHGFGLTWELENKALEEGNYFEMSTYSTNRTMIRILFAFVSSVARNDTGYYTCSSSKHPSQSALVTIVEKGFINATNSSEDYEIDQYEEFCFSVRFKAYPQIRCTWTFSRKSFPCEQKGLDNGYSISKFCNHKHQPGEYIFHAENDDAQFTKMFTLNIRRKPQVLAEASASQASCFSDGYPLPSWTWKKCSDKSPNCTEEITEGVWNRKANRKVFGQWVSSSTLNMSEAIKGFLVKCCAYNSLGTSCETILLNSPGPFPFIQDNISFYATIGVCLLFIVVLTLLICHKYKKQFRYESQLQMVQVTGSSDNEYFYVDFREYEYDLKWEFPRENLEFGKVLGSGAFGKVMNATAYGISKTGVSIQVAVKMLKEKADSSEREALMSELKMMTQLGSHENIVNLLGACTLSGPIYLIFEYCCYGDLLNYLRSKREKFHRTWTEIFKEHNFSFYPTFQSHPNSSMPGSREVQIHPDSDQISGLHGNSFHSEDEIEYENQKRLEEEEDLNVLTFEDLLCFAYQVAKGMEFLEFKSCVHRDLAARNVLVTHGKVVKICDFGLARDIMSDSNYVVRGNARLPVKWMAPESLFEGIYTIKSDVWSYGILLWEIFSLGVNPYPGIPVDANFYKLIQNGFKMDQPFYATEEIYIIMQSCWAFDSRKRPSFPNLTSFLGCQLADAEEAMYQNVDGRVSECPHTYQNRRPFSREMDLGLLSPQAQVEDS
Experimental: FIG. 2: Determination of the IC50 of compounds 1, 2 and 3 with respect to the inhibition of the kinase Axl and of the kinase FLT3. 10 concentrations of the compound were prepared by serial dilutions. The compounds are screened in DMSO at 1% final. The kinases were diluted in a concentrated concentration twice in kinase buffer. All the ATP solutions were diluted in a 4-fold concentrated working concentration (50 mM HEPES pH 7.5, 0.01% BRIJ-35, 10 mM MgCl2, 1 mM EGTA). Each compound was incubated at 10 concentrations between 100 nM and 0.00495 nM in order to calculate the IC50. The IC50 are indicated: a) results of compound 1; b) results of compound 2; c) results of compound 3.
as §3, §4
To calculate the IC50 inhibition of Axl and FLT3 by the compounds of the invention, 10 concentrations of each compound 1, 2 and 3 were prepared by 1/3 serial dilutions from the starting concentration. The Axl or FLT3 kinases were diluted at a two-fold concentration in kinase buffer. All the ATP solutions are diluted in a 4-fold working concentration (50 mM HEPES PH 7.5, 0.01% BRIJ-35, 10 mM MgCl2, 1 mM EGTA).
Each compound is incubated at 10 concentrations between 100 nM and 0.00495 nM in order to calculate the IC50.

[2] = tested on: SARS-COV-2 virus, BetaCoV/France/IDF0371/2020; assay: Anti-SARS-COV-2 activity in A549-ACE2 cells; assay type: cell-based; conditions: MOI=0.01, 24 hours, qRT-PCR; for infection of the A549-ACE2 cells by the SARS-COV-2 virus: 1.25 μM; for pIC50: A549-ACE2 cells
SARS-COV-2 = assay: Summary of activity on the SARS-COV-2 infectious models; assay type: cell-based; conditions: summary table
Experimental: as §1, §2

With `CN1CCN(Cc2cccc(-c3cnc4[nH]cc(-c5cc(NC(=O)Nc6ccccc6)ccc5F)c4c3)c2)CC1` [Compound 3] the “infection of the VeroE6 cells by the SARS-COV-2 virus” value (shortened to “infection of the VeroE6 cells”) [1] was “prevent the infection”, the “Percentage inhibition AXL” value (Axl) was 94% and the pIC50 (Axl) was 8.20. For the same compound, the “selectivity with respect to Axl relative to FLT3” value (Axl; from IC50 Axl and IC50 FLT3) was “shows a selectivity with respect to Axl relative to FLT3”, the “Percentage inhibition RET” value (RET) was 23% and the “Percentage inhibition PLK1” value (PLK1) was 6%. The “Percentage inhibition ZAP70” value (ZAP70) was 5%, the “Percentage inhibition SYK” value (SYK) was 8% and the “Percentage inhibition ABL1” value (ABL1) was 22%. For the same compound, the pIC50 (FLT3) was 7.32, the “infection of the A549-ACE2 cells by the SARS-COV-2 virus” value (shortened to “infection of the A549-ACE2 cells”) [2] was “prevent the infection” and the pIC50 [2] was 7.42. The “active on infectious model SARS-COV-2” value (SARS-COV-2) was “ACTIVE”.
For `CN1CCN(Cc2cccc(-c3cnc4[nH]cc(-c5cc(CNCCc6ccc(O)cc6)ccc5F)c4c3)c2)CC1` [Compound 1], the “infection of the VeroE6 cells” value [1] was “prevent the infection”, the pIC50 [1] was 7.11 and the “Percentage inhibition AXL” value (Axl) was 95%. The pIC50 (Axl) was 8.27, the “Percentage inhibition RET” value (RET) was 84% and the “Percentage inhibition PLK1” value (PLK1) was 4%. For the same compound, the “Percentage inhibition ZAP70” value (ZAP70) was 4%, the “Percentage inhibition SYK” value (SYK) was 4% and the “Percentage inhibition ABL1” value (ABL1) was 38%. For the same compound, the pIC50 (FLT3) was 8.60, the “infection of the A549-ACE2 cells” value [2] was “prevent the infection” and the pIC50 [2] was 7.72. The “active on infectious model SARS-COV-2” value (SARS-COV-2) was “ACTIVE”.
In the case of `CN1CCN(Cc2cccc(-c3cnc4[nH]cc(-c5cc(CNCc6ccccc6)ccc5F)c4c3)c2)CC1` [Compound 2], the “infection of the VeroE6 cells” value [1] was “prevent the infection”, the pIC50 [1] was 6.54 and the “Percentage inhibition AXL” value (Axl) was 95%. For the same compound, the pIC50 (Axl) was 8.63, the “Percentage inhibition RET” value (RET) was 48% and the “Percentage inhibition PLK1” value (PLK1) was 4%. For the same compound, the “Percentage inhibition ZAP70” value (ZAP70) was 4%, the “Percentage inhibition SYK” value (SYK) was 11% and the “Percentage inhibition ABL1” value (ABL1) was 16%. For the same compound, the pIC50 (FLT3) was 8.63, the “infection of the A549-ACE2 cells” value [2] was “prevent the infection” and the pIC50 [2] was 7.24. For the same compound, the “active on infectious model SARS-COV-2” value (SARS-COV-2) was “ACTIVE”.
